Source: article PMC4415393, “Immobilized laccase mediated dye decolorization and transformation pathway of azo dye acid red 27” (Journal of Environmental Health Science and Engineering, 2015)

Tests used:
[1] = biological target: T1, Free laccase (Cyathus bulleri, UniProt A8W7J6); test: Laccase assay with inhibitors and ABTS kinetics, free enzyme; format: biochemical; conditions: 1 h pre-incubation
T1 sequence (A8W7J6 17-513): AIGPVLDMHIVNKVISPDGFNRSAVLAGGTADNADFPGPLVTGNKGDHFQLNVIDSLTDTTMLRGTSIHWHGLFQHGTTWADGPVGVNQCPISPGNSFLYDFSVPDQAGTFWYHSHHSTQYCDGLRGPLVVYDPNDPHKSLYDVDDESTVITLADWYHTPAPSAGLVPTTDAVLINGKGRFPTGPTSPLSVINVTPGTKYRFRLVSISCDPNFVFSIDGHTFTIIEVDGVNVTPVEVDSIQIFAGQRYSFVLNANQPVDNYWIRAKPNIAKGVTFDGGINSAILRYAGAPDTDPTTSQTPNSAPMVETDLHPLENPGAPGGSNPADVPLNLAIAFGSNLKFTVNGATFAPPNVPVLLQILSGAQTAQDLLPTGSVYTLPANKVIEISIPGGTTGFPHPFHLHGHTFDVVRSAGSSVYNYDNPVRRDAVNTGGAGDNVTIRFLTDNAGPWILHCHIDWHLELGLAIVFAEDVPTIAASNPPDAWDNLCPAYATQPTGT

[2] = biological target: T2, PVA-nitrate immobilized laccase (Cyathus bulleri, UniProt A8W7J6); test: Laccase assay with inhibitors and ABTS kinetics, immobilized enzyme; format: biochemical; conditions: 1 h pre-incubation
T2 sequence (A8W7J6 17-513): T1 sequence (A8W7J6 17-513)

[N-]=[N+]=[N-] [sodium azide]
IC50 [1]: 5 ± 0.5 µM
IC50 [2]: 6 ± 0.3 µM
